Series [1] relates to FD patients. The series is described as follows: Adverse events in the 12-week clinical study in FD patients. It is filed as in vivo, human. As to the method: The study was double-blinded and placebo-matched. Eligible subjects were randomized (1:1:1:1 ratio) to either alosetron 0.5 mg, 1 mg, 2 mg, or matched placebo twice daily for a 12-week treatment phase followed by a one-week follow-up period. Laboratory evaluations and adverse events were recorded at the 4, 8 and 12-week (or final) treatment visits.
Adverse events were coded and group by body system. Adverse events occurring after randomization were summarized separately from adverse events occurring during the screening phase. For each body system and over all body systems, the frequency of subjects reporting at least one adverse event was calculated by treatment group. In addition, the number of subjects reporting at least one drug-related adverse event and the number of subjects reporting serious adverse events were summarized by treatment group. The four treatment groups were compared using a correlation chi-square test; pairwise comparisons were made with Fisher's exact test.

For the next series, the system named is healthy subjects. The settings on record: isobarometric and isovolumetric gastric distensions; cited from earlier work.
The subject of series [2] is FD patients. The series is described as follows: 12-week double-blind placebo-matched clinical study in FD patients: adequate relief of upper abdominal pain or discomfort and FD symptoms. The settings on record: for Average Weekly Adequate Relief of Pain and Discomfort, Adequate Relief Rates: 12 weeks. Type of series: in vivo, human. As for the experimental part: Three hundred and twenty (320) ambulatory outpatient male and female FD patients at least 18 years of age who have chronic or recurrent abdominal pain or discomfort centered in the upper abdomen were randomised for study comprising twelve (12) weeks of treatment: eighty one (81) were randomised to treatment with placebo BID, seventy seven (77) to 0.5 mg BID alosetron, seventy nine (79) to 1 mg BID alosetron, and eighty three (83) to 2 mg BID alosetron. Study participants included patients who have been diagnosed with FD and patients with symptoms that fulfilled the modified Rome criteria for FD for at least 6 months. Study participants were screened for two weeks prior to the testing phase, to confirm symptoms of sufficient severity for participation in the study. During the two-week screening period, those patients enrolled from the U.S. underwent a 90-minute gastric emptying test to characterize their gastric motility. At the end of the two-week period, all study participants underwent an esophagogastroduodenoseope (EGD) to rule out organic disease and obtain a biopsy for H. pylori within one month of screening. The study was double-blinded and placebo-matched. Eligible subjects were randomized (1:1:1:1 ratio) to either alosetron 0.5 mg, 1 mg, 2 mg, or matched placebo twice daily for a 12-week treatment phase followed by a one-week follow-up period. Laboratory evaluations and adverse events were recorded at the 4, 8 and 12-week (or final) treatment visits. The study was designed to elicit measurements relating to efficacy and safety. The primary endpoint was adequate relief of FD (upper abdominal) pain or discomfort. Secondary endpoints included 1) changes in daily upper abdominal pain severity ratings, 2) proportion of pain free days, 3) changes in self-ratings of nausea, early satiety, bloating or distension, post-prandial fullness and burping or belching, 4) changes in quality of life (QOL) SF-36 scores, 5) changes in SCL-90R® scores, and 6) safety and tolerability with respect to the incidence of adverse events and changes in laboratory values. Daily and weekly symptom data were collected using an electronic touch-tone telephone based system described in J. Harding, et al., Gastroenterology 112:[…] (1997); and J. Harding, et al., Aliment Pharm. Ther. 11:1073-761997. Severity of abdominal pain, nausea and bloating were assessed on a daily basis using a five point scale (0=none; 1=very mild; 2=mild; 3=moderate; 4=severe). During screening, the pain severity score was required to average ≧1.5 for entry into the study. During the treatment and follow-up phases, subjects were asked weekly if they had obtained adequate relief of their upper abdominal pain or discomfort during the previous 7 days. Subjects also responded daily to yes/no questions assessing whether early satiety, post-prandial fullness and burping or belching were present. Analyses were by Intent-to-Treat (ITT) using the last observation carried forward (LOCF) method for handling missing data. The ITT population included all subjects randomized to study treatment. The primary efficacy endpoint was the adequate relief of upper abdominal pain or discomfort. The 12-week average rate of adequate relief was calculated as the sum of the number of responses of “yes” over the 12 weeks of the treatment phase divided by 12 and multiplied by 100 using the LOCF approach. The proportion of patients with weekly adequate relief of upper abdominal pain or discomfort was compared between treatment groups using the Mantel-Haenszel test stratified by geographical clusters of treatment centers. Secondary efficacy measures included subject self-rating of pain severity, frequency and the FD symptoms of nausea, bloating/distension, burping/belching, early satiety and post-prandial fullness. […]

The test system of series [3] is FD patients and healthy controls. The settings on record: cited from earlier work.

Structures are written as SMILES.

Regarding `Cc1[nH]cnc1CN1CCc2c(c3ccccc3n2C)C1=O` [Alosetron, 2,3,4,5-tetrahydro-5-methyl-2-[(5-methyl-1H-imidazol-4-yl)methyl]-1H-pyrido[4,3-b]indol-1-one], the “Adverse Events: Any event” value turned out to be 68% with FD patients [1] (0.5 mg BID), 68% in the series with FD patients [1] (1 mg BID) and 75% in the series on FD patients [1] (2 mg BID). Also, the “Adverse Events: GI event” value in the series with FD patients [1] (0.5 mg BID) is given as 58%; with FD patients [1] (1 mg BID), 52%; in the series with FD patients [1] (2 mg BID) it was 63%. The results for the “Adverse Events: Neurology” value in the series with FD patients [1] (0.5 mg BID), in the series with FD patients [1] (1 mg BID) and in the series on FD patients [1] (2 mg BID) were 9%, 4% and 16%, respectively. In addition, the “Adverse Events: constipation” value came to 45% in the series with FD patients [1] (0.5 mg BID), 34% with FD patients [1] (1 mg BID) and 46% in the series on FD patients [1] (2 mg BID). In the series with FD patients [1] (FD patients), the Tolerability entry is on record as “well-tolerated”. Besides, in the series with healthy subjects, the Visceral perception scores entry was “effect similar to placebo”. Moreover, the “Average Weekly Adequate Relief, % with Adequate Relief” value in the series with FD patients [2] (Abnormal gastric emptying (n = 14-16), 0.5 mg BID) amounted to 51%; with FD patients [2] (Abnormal gastric emptying (n = 14-16), 1 mg BID) it was 59%; in the series with FD patients [2] (Abnormal gastric emptying (n = 14-16), 2 mg BID), 45%; in the series on FD patients [2] (Normal gastric emptying (n = 32-34), 0.5 mg BID), 60%; with FD patients [2] (Normal gastric emptying (n = 32-34), 1 mg BID), 56%; with FD patients [2] (Normal gastric emptying (n = 32-34), 2 mg BID), 43%. The “Abdominal pain and discomfort” value in the series with FD patients [2] (FD patients, particularly female FD patients) is “substantially improved”. Besides, the “Average Weekly Adequate Relief of Pain and Discomfort, Adequate Relief Rates” value stood at 49 in the series on FD patients [2] (Females (n = 50-60), 0.5 mg BID); 54 in the series on FD patients [2] (Females (n = 50-60), 1 mg BID); 43 in the series on FD patients [2] (Females (n = 50-60), 2 mg BID); 39 in the series on FD patients [2] (Males (n = 20-33), 0.5 mg BID); 43 with FD patients [2] (Males (n = 20-33), 1 mg BID); 40 in the series on FD patients [2] (Males (n = 20-33), 2 mg BID). In addition, in the series on FD patients [2] (all doses, subjects with normal and subjects with abnormal gastric emptying), the “Improvement in adequate relief by gastric emptying status” value was “Improvement was observed for all doses”. The “Adequate relief rate as compared with placebo” value in the series on FD patients [2] (each dose (0.5, 1, 2 mg BID)) is recorded as “greater adequate relief rate as compared with placebo”. In addition, the “Nausea, early satiety and post-prandial fullness” value with FD patients [2] (female patients and patients with normal gastric emptying) is recorded as “substantially improved”.

For the compound `CN1[C@@H]2CC[C@H]1C[C@@H](OC(=O)c1c[nH]c3ccccc13)C2` [tropisetron], the “Gastric accommodation, reflex relaxation or gastric sensitivity” value in series [3] was “did not influence”.

The record behind these values is US20030187017A1, “Method for treating functional dyspepsia” (priority 2002, published 2003).
